Source: patent US12606541B2, “PPARg modulators and methods of use” (Eisai R&D Management Co., Ltd., priority 2020, dated 2026)

What was measured:
[1] = test system: UM-UC-9 engineered cells; test: Cell proliferation / short-term viability assay, CellTiter-Glo 144 h; format: cell-based, human; settings: Homo sapiens, UM-UC-9, 144 h, read-out: CTGlo 144 h UMUC9.5, G150
Method in brief: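 Viability read by CellTiter-Glo 2.0 luminescence at day 7 versus DMSO-vehicle wells and a T0 plate measured on day 0. Cells: UM-UC-9 engineered assay-ready stocks, 500 cells/well in high-glucose DMEM with 10% FBS, 37° C, 5% CO2.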

[2] = biological target: T1, His6-TEV-PPARγ-(234-505) (Homo sapiens, UniProt P37231); test: TR-FRET Assay to Measure Co-R Peptide Recruitment to PPARγ; format: biochemical; settings: Co-R peptide (SMRT-ID2) recruitment; top final concentration 20 μM; read-out: TR-FRET i-Ag; AC50
T1 construct: The His6-TEV-PPARγ-(234-505) protein for assay was expressed and purified; TEV cleavage site (N); made in house
T1 sequence (P37231 234-505): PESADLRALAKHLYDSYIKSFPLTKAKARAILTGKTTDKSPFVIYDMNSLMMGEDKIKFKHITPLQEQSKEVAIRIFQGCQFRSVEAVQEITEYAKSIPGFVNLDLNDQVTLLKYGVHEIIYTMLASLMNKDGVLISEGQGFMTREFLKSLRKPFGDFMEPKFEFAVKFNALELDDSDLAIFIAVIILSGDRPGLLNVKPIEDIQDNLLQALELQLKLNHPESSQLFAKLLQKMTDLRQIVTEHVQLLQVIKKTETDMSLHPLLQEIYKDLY
Method in brief: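 Corepressor recruitment is measured by adding terbium-labeled anti-His antibody and FITC SMRT-ID2 peptide, at 5 and 200 nM final, after a 20-minute room-temperature protein–compound incubation. After one further hour, signal is converted to percent response between DMSO and 500 nM T0070907 wells.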

| Structure (SMILES) | AC50 [2] [nM] | IC50 [1] [nM] |
| --- | --- | --- |
| COc1cc(-c2cc(C(=O)N3[C@@H]4CC[C@H]3C[C@H](C(=O)NC3CCC5(CC3)OCC5C(F)(F)F)C4)n[nH]2)c(F)cn1 (some centres unmarked) [Example 318] | 340 | 372 |
| COc1cc(-c2cc(C(=O)N3[C@@H]4CC[C@H]3C[C@H](C(=O)NC3CCC5(CC3)OCC(F)C5F)C4)n[nH]2)c(F)cn1 (stereo partly drawn) [Example 319, (1R,3s,5S)—N-(3,41-difluoro-1-oxaspiro[4.5]decan-8-yl)-8-(5-(5-fluoro-2-methoxypyridin-4-yl)-1H-pyrazole-3-carbonyl)-8-azabicyclo[3.2.1]octane-3-carboxamide] | 124 | 232 |
| COc1cc(-c2cc(C(=O)N3CC[C@H](C(=O)N[C@H]4CC[C@@](OCCN(C)C)(C(F)(F)F)CC4)CC34CC4)n[nH]2)c(F)cn1 [Example 329-A, (S)—N-((1r,4S)-4-(2-(dimethylamino)ethoxy)-4-(trifluoromethyl)cyclohexyl)-4-(5-(5-fluoro-2-methoxypyridin-4-yl)-1H-pyrazole-3-carbonyl)-4-azaspiro[2.5]octane-7-carboxamide] | 7.5 | 24.3 |
| COc1cc(-c2cc(C(=O)N3CC[C@@H](C(=O)N[C@H]4CC[C@@](OCCN(C)C)(C(F)(F)F)CC4)CC34CC4)n[nH]2)c(F)cn1 [Example 329-B, (R)—N-((1r,4R)-4-(2-(dimethylamino)ethoxy)-4-(trifluoromethyl)cyclohexyl)-4-(5-(5-fluoro-2-methoxypyridin-4-yl)-1H-pyrazole-3-carbonyl)-4-azaspiro[2.5]octane-7-carboxamide] | 452 | 1650 |
| COc1cc(-c2cc(C(=O)N3CC[C@H](C(=O)NCC45COC(C)(C4)C5)CC34CC4)n[nH]2)c(F)cn1 [Example 343, (S)-4-(5-(5-fluoro-2-methoxypyridin-4-yl)-1H-pyrazole-3-carbonyl)-N-((1-methyl-2-oxabicyclo[2.1.1]hexan-4-yl)methyl)-4-azaspiro[2.5]octane-7-carboxamide] | 20 | 93 |
| COc1cc(-c2cc(C(=O)N3CC[C@H](C(=O)NC4CCN(CC(C)(C)O)C4)CC34CC4)[nH]n2)c(F)cn1 (stereo partly drawn) [Example 345-A, (S)-4-(3-(5-Fluoro-2-methoxypyridin-4-yl)-1H-pyrazole-5-carbonyl)-N-(1-(2-hydroxy-2-methylpropyl)pyrrolidin-3-yl)-4-azaspiro[2,5]octane-7-carboxamide] | 161 | 445 |
| COc1cc(-c2cc(C(=O)N3CC[C@H](C(=O)NC4CCC5(CCCN5C5COC5)CC4)CC34CC4)n[nH]2)c(F)cn1 (stereo partly drawn) [Example 349, (S)-4-(5-(5-fluoro-2-methoxypyridin-4-yl)-1H-pyrazole-3-carbonyl)-N-(1-(oxetan-3-yl)-1-azaspiro[4.5]decan-8-yl)-4-azaspiro[2.5]octane-7-carboxamide] | 187 | 836 |
| COc1cc(-c2cc(C(=O)N3CC[C@H](C(=O)N[C@H]4CC[C@@](OC[C@H](C)N)(C(F)(F)F)CC4)CC34CC4)n[nH]2)c(F)cn1 [Example 352, (S)—N-((1548)-4-((S)-2-aminopropoxy)-4-(trifluoromethyl)cyclohexyl)-4-(5-(5-fluoro-2-methoxypyridin-4-yl)-1H-pyrazole-3-carbonyl)-4-azaspiro[2.5]octane-7-carboxamide] | 7.7 | 134 |
| COc1cc(-c2cc(C(=O)N3CC[C@H](C(=O)N[C@H]4CC[C@@](OC[C@H](C)O)(C(F)(F)F)CC4)CC34CC4)n[nH]2)c(F)cn1 [Example 353, (S)-4-(5-(5-fluoro-2-methoxypyridin-4-yl)-1H-pyrazole-3-carbonyl)-N-((1S,4S)-4-((S)-2-hydroxypropoxy)-4-(trifluoromethyl)cyclohexyl)-4-azaspiro[2.5]octane-7-carboxamide] | 6.6 | 6 |
| COc1cc(-c2cc(C(=O)N3CC[C@H](C(=O)NC4CC5CCC(C4)O5)CC34CC4)n[nH]2)c(F)cn1 (stereo partly drawn) [Example 354, (7S)—N-(8-oxabicyclo[3.2.1]octan-3-yl)-4-(5-(5-fluoro-2-methoxypyridin-4-yl)-1H-pyrazole-3-carbonyl)-4-azaspiro[2.5]octane-7-carboxamide] | 24.1 | 28.6 |
| COc1cc(-c2cc(C(=O)N3CC[C@H](C(=O)NCc4ncccc4C)CC34CC4)n[nH]2)c(F)cn1 [Example 359, (S)-4-(5-(5-fluoro-2-methoxypyridin-4-yl)-1H-pyrazole-3-carbonyl)-N-((3-methylpyridin-2-yl)methyl)-4-azaspiro[2.5]octane-7-carboxamide] | 8 | 19.9 |

Further lines, with some results ahead:

| AC50 [2] [nM] | Structure (SMILES) | IC50 [1] [nM] |
| --- | --- | --- |
| 72.6 | COc1cc(-c2cc(C(=O)N3CC[C@H](C(=O)NCC45CCC(O)(C4)C5)CC34CC4)n[nH]2)c(F)cn1 [Example 334, (S)-4-(5-(5-fluoro-2-methoxypyridin-4-yl)-1H-pyrazole-3-carbonyl)-N-((4-hydroxybicyclo[2.1.1]hexan-1-yl)methyl)-4-azaspiro[2.5]octane-7-carboxamide] | 284 |
| 417 | COc1cc(-c2cc(C(=O)N3CCC(C(=O)NCC45CCC(O)(C4)C5)CC34CC4)n[nH]2)c(F)cn1 (centres unmarked) [Example 335, 4-(5-(5-fluoro-2-methoxypyridin-4-yl)-1H-pyrazole-3-carbonyl)-N-((4-hydroxybicyclo[2.1.1]hexan-1-yl)methyl)-4-azaspiro[2.5]octane-7-carboxamide] | 6150 |
| 109 | COc1cc(-c2cc(C(=O)N3CC[C@H](C(=O)NCC45CC(O)(C4)C5)CC34CC4)n[nH]2)c(F)cn1 [Example 336, (S)-4-(5-(5-fluoro-2-methoxypyridin-4-yl)-1H-pyrazole-3-carbonyl)-N-((3-hydroxybicyclo[1.1.1]pentan-1-yl)methyl)-4-azaspiro[2.5]octane-7-carboxamide] | 1050 |
| 14800 | COc1cc(-c2cc(C(=O)N3CC[C@@H](C(=O)N[C@@H]4CCN(CC(C)(C)O)C4)CC34CC4)[nH]n2)c(F)cn1 [Example 344-A, (R)-4-(3-(5-fluoro-2-methoxypyridin-4-yl)-1H-pyrazole-5-carbonyl)-N—((R)-1-(2-hydroxy-2-methylpropyl)pyrrolidin-3-yl)-4-azaspiro[2.5]octane-7-carboxamide] | > 10000 |
| 123 | COc1cc(-c2cc(C(=O)N3CC[C@H](C(=O)N[C@@H]4CCN(CC(C)(C)O)C4)CC34CC4)[nH]n2)c(F)cn1 [Example 344-B, (S)-4-(3-(5-fluoro-2-methoxypyridin-4-yl)-1H-pyrazole-5-carbonyl)-N—((R)-1-(2-hydroxy-2-methylpropyl)pyrrolidin-3-yl)-4-azaspiro[2.5]octane-7-carboxamide] | 570 |
| 7250 | COc1cc(-c2cc(C(=O)N3CC[C@@H](C(=O)N[C@H]4CCN(CC(C)(C)O)C4)CC34CC4)[nH]n2)c(F)cn1 [Example 345-B, (R)-4-(3-(5-Fluoro-2-methoxypyridin-4-yl)-1H-pyrazole-5-carbonyl)-N—((S)-1-(2-hydroxy-2-methylpropyl)pyrrolidin-3-yl)-4-azaspiro[2.5]octane-7-carboxamide] | > 10000 |
| 305 | COc1cc(-c2cc(C(=O)N3CC[C@H](C(=O)NC4CCC5(CCCN5)CC4)CC34CC4)n[nH]2)c(F)cn1 (stereo partly drawn) [Example 348, (S)-4-(5-(5-fluoro-2-methoxypyridin-4-yl)-1H-pyrazole-3-carbonyl)-N-(1-azaspiro[4.5]decan-8-yl)-4-azaspiro[2.5]octane-7-carboxamide] | > 10000 |
| 5.3 | COc1cc(-c2cc(C(=O)N3CC[C@H](C(=O)N[C@H]4CC[C@@](OCCN)(C(F)(F)F)CC4)CC34CC4)n[nH]2)c(F)cn1 [Example 350, (S)—N-((1r,4S)-4-(2-aminoethoxy)-4-(trifluoromethyl)cyclohexyl)-4-(5-(5-fluoro-2-methoxypyridin-4-yl)-1H-pyrazole-3-carbonyl)-4-azaspiro[2.5]octane-7-carboxamide] | 176 |
| 256 | COc1cc(-c2cc(C(=O)N3CC[C@H](C(=O)NC4CCC5(CCCN5CC(C)(F)F)CC4)CC34CC4)n[nH]2)c(F)cn1 (stereo partly drawn) [Example 351, (S)—N-(1-(2,2-difluoropropyl)-1-azaspiro[4.5]decan-8-yl)-4-(5-(5-fluoro-2-methoxypyridin-4-yl)-1H-pyrazole-3-carbonyl)-41-azaspiro[2.5]octane-7-carboxamide] | 450 |
| 5.1 | COc1cc(-c2cc(C(=O)N3CC[C@H](C(=O)NCc4ncccc4Cl)CC34CC4)n[nH]2)c(F)cn1 [Example 358, (S)—N-((3-chloropyridin-2-yl)methyl)-4-(5-(5-fluoro-2-methoxypyridin-4-yl)-1H-pyrazole-3-carbonyl)-4-azaspiro[2.5]octane-7-carboxamide] | 3.4 |
| 10.2 | COc1cc(-c2cc(C(=O)N3CC[C@H](C(=O)NCc4ncc(F)cc4C)CC34CC4)n[nH]2)c(F)cn1 [Example 361, (S)-4-(5-(5-fluoro-2-methoxypyridin-4-yl)-1H-pyrazole-3-carbonyl)-N-((5-fluoro-3-methylpyridin-2-yl)methyl)-4-azaspiro[2,5]octane-7-carboxamide] | 17.8 |
